Consider one compound from US20040228930A1, “Treatment for hemorrhagic shock” (priority 2002, published 2004).

Holding throughout (assay type): in vivo
In data set [1] the test system is il-10−/− mice subjected to HS/R. Kind of data set: Serum ALT in il-10−/− mice subjected to HS/R. On the procedure:
(§1) Hemorrhagic shock was induced in mice as follows: C57/BL6 or il-10^−/− mice (Jackson Laboratories) (n=3/group) weighing 20-26 grams were anesthetized with pentobarbital (70 mg/kg; IP). The right and left femoral arteries were cannulated. The left arterial catheter was connected to a monitor to follow MAP and heart rate. Over 10 minutes, blood was withdrawn via the right catheter while monitoring blood pressure to achieve an MAP of 25 mmHg. Blood was withdrawn and returned to the animal as necessary in order to maintain a MAP of 25 mmHg. Sham animals were cannulated but not subjected to hemorrhage. At the end of the shock period (90-150 minutes), mice were resuscitated with the shed blood plus two times that volume with Ringer's lactate solution over 15-30 minutes. Animals were sacrificed 4-24 hours following the initiation of resuscitation and blood, liver, lungs, and intestines were collected.
A colorimetric analysis for serum alanine aminotransferase (ALT) level was used to determine whether liver injury occurred in mice subjected to HS/R. The alanine aminotransferase test is one of a group of tests known as liver function tests and is used to monitor damage to the liver. Alanine aminotransferase is an enzyme that is normally expressed in the liver and under normal circumstances is present in serum samples at very low levels. […]

The subject of data set [2] is mice subjected to HS/R. In words: Intestinal histology (H&E) in mice subjected to HS/R. Particulars: CO 250 ppm throughout HS/R, 4 hours after resuscitation. On the procedure:
as §1
Harvested intestines were flushed and fixed in 2% paraformaldehyde for 2 hours and then 30% sucrose for 12 hours. Specimens were frozen slowly in cold 2-methylbutane. Sections were stained using hematoxylin and eosin (H&E) and architectural changes were evaluated.
Mice were exposed to CO at a concentration of 250 ppm. Briefly, 1% CO in air was mixed with air (21% oxygen) in a stainless steel mixing cylinder and then directed into a 3.70 ft^3 glass exposure chamber at a flow rate of 12 L/min. […]

Data set [3] concerns mice subjected to HS/R. Kind of data set: Lung myeloperoxidase (MPO) activity in mice subjected to HS/R.
The subject of data set [4] is il-10−/− mice subjected to HS/R. Kind of data set: Lung MPO activity in il-10−/− mice subjected to HS/R.
In data set [5] the test system is mice subjected to HS/R. In words: Serum ALT (liver injury) in mice subjected to HS/R. The procedure: as §1
A colorimetric analysis for serum alanine aminotransferase (ALT) level was used to determine whether liver injury occurred in mice subjected to HS/R. The alanine aminotransferase test is one of a group of tests known as liver function tests and is used to monitor damage to the liver. Alanine aminotransferase is an enzyme that is normally expressed in the liver and under normal circumstances is present in serum samples at very low levels. Increased levels of ALT in the serum are indicative of liver cell death and/or liver failure.
Mice were exposed to CO at a concentration of 250 ppm. Briefly, 1% CO in air was mixed with air (21% oxygen) in a stainless steel mixing cylinder and then directed into a 3.70 ft^3 glass exposure chamber at a flow rate of 12 L/min. A CO analyzer (Interscan, Chatsworth, Calif.) was used to measure CO levels continuously in the chamber. CO concentrations were maintained at 250 ppm at all times. Mice were placed in the exposure chamber as required. […]

The test system of the next data set is IL-6. Kind of data set: Serum IL-6 by ELISA in mice subjected to HS/R. The note with it: CO 250 ppm throughout HS/R, 4 hours after resuscitation, P<0.05 vs untreated HS/R mice. The procedure:
as §1
(§2) Serum levels of the cytokines interleukin-6 (IL-6), tumor necrosis factor alpha (TNF-α), and interleukin-10 (IL-10) were determined by enzyme-linked immunosorbent assay (ELISA) (R&D systems) according to the manufacturer's instructions. These cytokines were measured because they mediate inflammation. Levels of pro-inflammatory cytokines can increase following hemorrhagic shock and can exacerbate hemodynamics and contribute to the development of multiple organ dysfunction. […]
On the technique in general: An ELISA detects its analyte on a solid surface through an enzyme-linked reagent.

The next data set deals with IL-10. Kind of data set: Serum IL-10 by ELISA in mice subjected to HS/R. The note with it: CO 250 ppm throughout HS/R, 4 hours after resuscitation, P<0.05 vs sham and shock controls. The procedure:
as §1, §2

Data set [6] deals with hemorrhage-induced liver hypoxia. In words: EF5 hypoxic imaging of liver in hemorrhaged mice. The procedure: as §1
The technique of observing uptake of EF5 (2-[2-nitro-1H-imidazol-1-yl]-N-(2,2,3,3,3-pentafluoropropyl) acetamide) to monitor tissue hypoxia is well established and reliable. […] Intensity of staining was determined by measuring mean fluorescence in 10 different sections per animal (n=5 per group; MetaMorph®). […] These forms of the compound bind irreversibly to proteins within the cell, which can then be detected by immunohistochemistry. […]

The mark [7] stands for this setting: CO 250 ppm throughout HS/R, 4 hours after resuscitation, P<0.05.

Consider `[C-]#[O+]` [CO, carbon monoxide], for which the “protection against HS/R-induced liver injury (serum ALT)” value in data set [1] is “did not appear to protect”. In addition, the “intestinal histology of CO-treated shocked mice” value with mice subjected to HS/R [2] was “more closely resembled CO- and air-treated sham controls”. Also, the “lung MPO activity compared to untreated mice” value with mice subjected to HS/R [3] (setting [7]) was “significantly lowered”. For the same compound, in the data set on mice subjected to HS/R [3] (CO initiated during resuscitation only, after 4 hours), the “lung MPO activity” value was “significantly improved”. In addition, in data set [4], the “protection against HS/R-induced lung injury (lung MPO activity)” value was “did not appear to protect”. Moreover, the “serum ALT compared to untreated mice” value with mice subjected to HS/R [5] (setting [7]) is listed as “significantly lowered”. Moreover, in the data set with mice subjected to HS/R [5] (CO during resuscitation only, 24 hours after resuscitation), the “serum ALT compared to untreated shocked mice” value is “significantly lower”. Moreover, in the data set with mice subjected to HS/R [5] (CO initiated during resuscitation only, 4-hour time point following resuscitation (data not shown)), the “protection against liver injury” value is “no demonstrable protection”. For the same compound, in the data set with IL-6, the “HS/R-induced increase in serum IL-6” value was “significantly abrogated”. The “increase in serum IL-10 levels in shocked mice” value in the data set with IL-10 was determined as 5.4 fold. Moreover, the “liver hypoxia (EF5) compared to air-treated sham controls” value in data set [6] (CO-treated sham controls, 250 ppm) is “no increase”. Further, the “increase in liver EF5 staining compared to air-treated sham controls” value in data set [6] (shocked mice, CO 250 ppm initiated at onset of shock, 90 minutes after initiation of shock, P<0.05 vs air-treated shocked mice) is recorded as 3.7±0.7 fold.
